Laboratory results published in a melting point compilation (Tetko et al.; mined from patent text by program, amines drawn as free bases though some values may be those of a salt).

melting point [°C]	SMILES
158 to 160	CC(=O)C1CCC2=C(C1)C1OC2c2cc3ccccc3cc21 (stereo unspecified)
149 to 151	CCC1(CCCCN2CCc3sccc3C2)C(=O)Nc2ccc(Br)cc21 (stereo unspecified)
226 to 228	O=C(O)c1cn(C2CC2)c2nc(N3CCC(c4cccnc4)C3)c(F)cc2c1=O (stereo unspecified)
192 to 193	CCC(=O)Nc1cc(-c2c(-c3cccc(Cl)c3)nc3cccnn23)ccn1
236	COC(=O)COc1ccc2c(c1)Oc1cc(O)ccc1C21OC(=O)c2ccccc21 (stereo unspecified)
158 to 160	CC1OC(n2cc(F)c(NC(=O)c3ccccc3)nc2=O)C(OC(=O)c2ccccc2)C1OC(=O)c1ccccc1 (stereo unspecified)
143	Nc1ccc2c(c1)C(=Cc1cccs1)c1ccccc1-2
222 to 225	Cn1c(CCc2ccc(C#N)cc2)nc2cc(NS(=O)(=O)c3ccccc3)ccc21
204 to 206	O=C(O)C(=O)c1cc(F)ccc1NC(=O)c1ccc(-c2ccccc2)cc1
85 to 86	CC(Oc1ncnc2ccccc12)c1ccc(C(C)(C)C)cc1 (stereo unspecified)
177 to 180	CC(=O)Nc1ccc(C2=NNC(=O)Cc3cc4c(cc32)OCO4)cc1
33 to 35	CC(C)C(OCc1ccc(Cl)cc1)c1cncnc1 (stereo unspecified)
72 to 74	C=CC(C)(C)C(=O)C(Oc1ccc(Cl)cc1)n1ccnc1 (stereo unspecified)
151 to 152	COC(=O)c1c(Cc2ccc(C(=O)NC3CCC(O)CC3)cc2)c(=O)c2ccc(Cl)cc2n1-c1ccccc1 (stereo unspecified)
158	CC(=O)/C=C1/C(=O)N(c2ccccc2)C1c1ccccc1 (stereo unspecified)
81	CC(=O)N1c2ccccc2[C@@]2(C)Cc3ccccc3[C@@]12C (relative stereo)
128	Cc1nnc(N(Cc2ccccc2)C(=O)Cc2ccccc2)s1
155 to 157	O=c1cc2c(nn1-c1ccccc1)-c1ccccc1CC2

melting point [°C]	SMILES
295 to 297	CN1C(=O)CCCc2cc(Nc3ncc(Cl)c(Nc4ccc(N5CCCCC5)cc4C(N)=O)n3)ccc21
238 to 241	CC(=O)OC[C@H]1CCn2c(c(C3=C(c4cn(C)c5ccccc45)C(=O)NC3=O)c3ccccc32)C1
180	COc1cccc(N(C)C)c1C(=O)NC(=O)Nc1cccc(C(F)(F)F)c1
177 to 180	COc1ccc(NC(=O)N2CCc3cc(F)c(Cl)cc32)cc1N1CCN(C)CC1
137 to 139	CC(C(=O)O)c1ccc(-c2ccc(Br)cc2F)cc1 (stereo unspecified)
210 to 214	O=C1C=C(c2c[nH]c3ccccc23)C(=O)O1
133 to 134	Cc1ccc(C(Cl)=NNc2ccccc2)cc1
115 to 117	COC(=O)c1cccc(Cn2ccc(OCc3ccc(F)cc3F)c(Br)c2=O)c1
119 to 120	O=[N+]([O-])c1ccc(OCC2CCN(c3ccncc3)CC2)cc1
65 to 69	Fc1ccc(-c2cc(Cl)ncn2)c(F)c1
113 to 115	CC(CSC(=O)c1ccccc1)C(=O)N(CC(=O)O)C1Cc2ccccc2C1 (stereo unspecified)
123	CN1CC[C@@H](c2cc(Cl)ccc2O)[C@@H]1c1ccccc1I (relative stereo)
268 to 270	COc1cccc(Oc2cccc(-c3c(O)c4ccc(Cl)cc4[nH]c3=O)c2)c1
243 to 244	COC(=O)c1ccc(-c2n[nH]c(-c3ccccc3)n2)cc1
256 to 257	CCOC(=O)Nc1nc(-c2ccccc2)c(-c2nc3ccccc3c(=O)n2-c2ccc(OC)cc2)s1
176 to 179	CN(Cc1cc2c(=O)c(C(=O)NCc3ccc(Cl)cc3)cn(C)c2o1)CC(O)c1cc2ccccc2o1 (stereo unspecified)
205 to 207	O=C1CCC(N2C(=O)c3cccc(OCc4ccc(CN5CCOCC5)cc4)c3C2=O)C(=O)N1 (stereo unspecified)

More lines, now with the values behind:

SMILES	melting point [°C]
CCCCCCCCCCCCc1ccc(N=C(C)c2ccccc2)cc1	47
C=CCNC1=NS(=O)(=O)c2cc(Cl)cnc2N1	224 to 227
O=C(O)[C@H](Cc1ccc(F)cc1)[C@@H](O)c1ccc(C(F)(F)F)cc1 (racemic)	120 to 121
CCOc1cc2c(c3c1OC(C)(C)C3)C(c1cccc(NC(N)=O)c1)=NC(C)(C)C2	202 to 205
N#Cc1ccc(OCCCC(=O)O)cc1	210
C=C1CCC2C3CCC4CC(O)C(OC)CC4(C)C3CCC12C (stereo unspecified)	131 to 133
NC(=O)C1(c2ccn(C(CC(=O)OCc3ccccc3)C(=O)NC(CO)Cc3ccccc3)c2)C=CC(c2ccccc2)=CC1 (stereo unspecified)	192 to 194
CN(C)C(=N)CCCCCCCCCCCCC(=N)N(C)C	209
O=C(O)Cc1cn2ccccc2n1	205 to 208
CC1CC(=O)c2ccc(F)cc2O1 (stereo unspecified)	42 to 47
COc1cn(Cc2ccc(OC)c(OC)c2)c(=O)o1	99.5 to 102
COCCOc1c(S(C)(=O)=O)ccc(C(=O)O)c1Cl	89 to 92
CC(=O)c1c(C#N)nn(-c2c(Cl)cc(C(F)(F)F)cc2Cl)c1N	200 to 201
NCc1cc(Cl)c(N=C2NCCN2)c(Cl)c1	205 to 206
COc1ccc2nccc(C(O)CCC3CCNCC3)c2c1 (stereo unspecified)	154
CC(C)=CCC/C(C)=C/CSc1nc2cc(C(F)(F)F)ccc2[nH]1	106 to 108
Cc1cc(C)c(C)c(OCC(=O)O)c1	129 to 130
Cc1ccc(N2CCN(C(=O)NCCN(C)C)CC2)cc1	85 to 88

SMILES	melting point [°C]
O=S(=O)(c1cccc(C(F)(F)F)c1)c1cc(Br)nc(Br)c1	156 to 158
CCC(=O)N1CCNC1=NC#N	208 to 210
CC(CO)N1CCN(c2cccc3c2OCCO3)CC1 (stereo unspecified)	91 to 92
c1cncc(-c2ccnc3nc(N4CCNCC4)nn23)c1	156 to 158
CC(C)=CCOC(C)C1CCC2=C3C=CC4C(C)(C)C(OC(=O)CCC(=O)O)CCC4(C)C3CCC21C (stereo unspecified)	96 to 99
Cc1cc(C)c(N2CCCc3c2nn(C)c3C(=O)O)c(Cl)c1	248
CCCC1c2cc(C(C)(C)C)cc(C(C)(C)C)c2OP(=O)(c2ccccc2)Oc2c1cc(C(C)(C)C)cc2C(C)(C)C (stereo unspecified)	232 to 234
CCCCCCCc1cnc(N)s1	75 to 76
CCn1c(Oc2cccc(NC(=O)N(C)C)c2)nnc1[C@@H](C)NS(=O)(=O)c1ccc(Cl)c(Cl)c1	158 to 159
O=c1[nH]nc(-c2ccc(-n3ccnc3)cc2)c2ncccc12	376 to 378
COc1ccc(-c2ccc(OC(C)CC(C)Oc3ccc(-c4ccc(OC)cc4)cc3)cc2)cc1 (stereo unspecified)	164
O=Cc1cc(Oc2ccc(C(F)(F)F)cc2Cl)ccc1[N+](=O)[O-]	95
CC(=O)N1C(=O)Cc2cc(F)c(N3C(=O)C4=C(CCCC4)C3=O)cc21	191 to 194
CCCCCCCCCCc1cc(CCCCCCCCCC)cc(N(CC(=O)O)CC(=O)O)c1	78 to 81
CC(=O)C(=Cc1cccc([N+](=O)[O-])c1)P(=O)(OCC(C)C)OCC(C)C	81 to 82
COc1ccc2oc3ccc(Br)cc3c2c1C(=O)Nc1ccncc1	270 to 273
CC=C(NC(=O)CC(C)C)C(=O)O	172 to 174
COc1cc2cc(COCC(=O)N3CCN(C)CC3)c(CO)c(-c3ccnc(-n4c(=O)ccc5ccccc54)c3)c2cc1OC	100 to 102
